The subject of assay [1] is BDF1 mice, P388 leukemia ip. Description: NCI In Vivo Anticancer Drug Screen. Data for tumor model P388 Leukemia (intraperitoneal) in B6D2F1 (BDF1) mice. The settings on record: endpoint: mean survival time, schedule: Q01DX009 (ip), higher = longer survival. An outline of the steps:
(§1)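 Read-out is survival of treated animals expressed relative to the vehicle group, as a T/C ratio.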

Assay [2] has as its system BDF1 mice, P388 leukemia ip, median survival T/C. Described as above. The conditions noted are these: endpoint: median survival time, higher = longer survival. An outline of the steps:
as §1

[3] abbreviates: dose: 12.5 mg/kg/injection, schedule: Q04DX003 (ip), vehicle: saline with Tween-80.
Where [4] appears, read: dose: 25.0 mg/kg/injection, schedule: Q01DX009 (ip), vehicle: saline with Tween-80.
Where [5] appears, read: dose: 25.0 mg/kg/injection, schedule: Q04DX003 (ip), vehicle: saline with Tween-80.
Setting [6] is: dose: 50.0 mg/kg/injection, schedule: Q01DX009 (ip), vehicle: saline with Tween-80.
Setting [7] is: dose: 50.0 mg/kg/injection, schedule: Q04DX003 (ip), vehicle: saline with Tween-80.
[8] abbreviates: dose: 100.0 mg/kg/injection, schedule: Q04DX003 (ip), vehicle: saline with Tween-80.
[9] abbreviates: dose: 200.0 mg/kg/injection, schedule: Q04DX003 (ip), vehicle: saline with Tween-80.

Structures are written as SMILES. Values joined by “and” are separate entries in the source; they are usually repeats but may differ in a detail not shown here. Equal values may be shown once. Inconclusive results and toxic doses are left out.

The values that follow come from PubChem BioAssay AID328 (DTP/NCI, 2004).

As for `CN(C)Cc1ccc(C(C)(C)C)cc1`, the T/C in assay [1] (dose: 3.12 mg/kg/injection, vehicle: water) was 108 % of control; in assay [1] (dose: 6.25 mg/kg/injection, vehicle: water) it was 100 % of control; in assay [1] (dose: 12.5 mg/kg/injection, vehicle: water) it was 102 % of control; in assay [1] (dose: 25.0 mg/kg/injection, vehicle: water), 96 % of control; in assay [1] (dose: 100.0 mg/kg/injection, vehicle: water) it was 95 % of control; in assay [2] (dose: 6.25 mg/kg/injection, schedule: Q04DX003 (ip), vehicle: water) it was 98 % of control. The T/C is 112 % of control in assay [2] (dose: 12.5 mg/kg/injection, schedule: Q04DX003 (ip), vehicle: water); 106 % of control in assay [2] (dose: 25.0 mg/kg/injection, schedule: Q04DX003 (ip), vehicle: water); 106 % of control in assay [2] (dose: 50.0 mg/kg/injection, schedule: Q04DX003 (ip), vehicle: water); 99 % of control and 100 % of control in assay [2] (dose: 100.0 mg/kg/injection, schedule: Q04DX003 (ip), vehicle: water).

In the case of `CNC(C)(C)C(SSSC(c1ccc(Cl)cc1)C(C)(C)NC)c1ccc(Cl)cc1` (configuration not stated), the T/C was 95 % of control in assay [1] (dose: 6.25 mg/kg/injection, vehicle: saline with Tween-80); 114 % of control in assay [1] (dose: 12.5 mg/kg/injection, vehicle: saline with Tween-80); 103 % of control in assay [1] (dose: 25.0 mg/kg/injection, vehicle: saline with Tween-80); 101 % of control in assay [2] (setting [3]); 102 % of control in assay [2] (setting [4]); 100 % of control in assay [2] (setting [5]). The results for the T/C in assay [2] (setting [6]) and in assay [2] (setting [7]) were 94 % of control and 95 % of control, respectively.

For `CO[C@@H]1[C@@H](OC2OC(C)C(OC3CC(C)(O)C(OC(=O)CC(C)C)C(C)O3)C(N(C)C)C2O)[C@@H](CC=O)C[C@@H](C)C(=O)/C=C/C2O[C@H]2C[C@@H](C)OC(=O)C[C@H]1OC(C)=O` (some centres not stated), the T/C was 109 % of control in assay [2] (dose: 50.0 mg/kg/injection, schedule: Q#A X020 (ip), vehicle: water); 110 % of control in assay [2] (dose: 100.0 mg/kg/injection, schedule: Q01DX001 (ip), vehicle: water); 118 % of control in assay [2] (dose: 100.0 mg/kg/injection, schedule: Q01DX010 (ip), vehicle: water); 118 % of control in assay [2] (dose: 100.0 mg/kg/injection, schedule: Q#A X020 (ip), vehicle: water); 118 % of control in assay [2] (dose: 150.0 mg/kg/injection, schedule: Q#A X020 (ip), vehicle: water); 100 % of control in assay [2] (dose: 200.0 mg/kg/injection, schedule: Q01DX001 (ip), vehicle: water). Also, the T/C in assay [2] (dose: 200.0 mg/kg/injection, schedule: Q01DX010 (ip), vehicle: water) is 109 % of control; in assay [2] (dose: 200.0 mg/kg/injection, schedule: Q#A X020 (ip), vehicle: water), 118 % of control; in assay [2] (dose: 300.0 mg/kg/injection, schedule: Q01DX010 (ip), vehicle: water), 118 % of control; in assay [2] (dose: 400.0 mg/kg/injection, schedule: Q01DX001 (ip), vehicle: water) it was 90 % of control; in assay [2] (dose: 600.0 mg/kg/injection, schedule: Q01DX001 (ip), vehicle: water) it was 100 % of control; in assay [2] (dose: 1000.0 mg/kg/injection, schedule: Q01DX010 (oral), vehicle: water), 86 % of control. Besides, the T/C in assay [2] (dose: 1500.0 mg/kg/injection, schedule: Q01DX010 (oral), vehicle: water) was 100 % of control.

For `CCCCC(I)C(C)(C)[n+]1ccccc1` (configuration not stated), the T/C is 100 % of control in assay [2] (dose: 3.12 mg/kg/injection, schedule: Q04DX003 (ip), vehicle: saline with Tween-80); 95 % of control in assay [2] (dose: 6.25 mg/kg/injection, schedule: Q04DX003 (ip), vehicle: saline with Tween-80); 100 % of control in assay [2] (dose: 12.5 mg/kg/injection, schedule: Q01DX009 (ip), vehicle: saline with Tween-80); 87 % of control in assay [2] (setting [3]); 113 % of control in assay [2] (setting [4]); 103 % of control in assay [2] (setting [5]). In addition, the T/C in assay [2] (setting [7]) is 96 % of control.

Consider `COC(=O)C(Br)C(OC)c1ccc(Cl)cc1` (configuration not stated), for which the T/C in assay [2] (setting [8]) is 109 % of control; in assay [2] (setting [9]) it was 109 % of control; in assay [2] (dose: 400.0 mg/kg/injection, schedule: Q04DX003 (ip), vehicle: saline with Tween-80) it was 118 % of control.

With `CC(/C=N/N=C(N)N)=N/N=C(N)N`, the T/C is 150 % of control in assay [2] (dose: 100.0 mg/kg/injection, schedule: Q01DX009 (ip), vehicle: saline) and 90 % of control in assay [2] (dose: 150.0 mg/kg/injection, schedule: Q01DX009 (ip), vehicle: saline with Tween-80).

Turning to `C=CCOc1ccccc1OC`, the T/C in assay [2] (setting [4]) is 100 % of control; in assay [2] (setting [6]), 113 % of control; in assay [2] (dose: 100.0 mg/kg/injection, schedule: Q01DX009 (ip), vehicle: saline with Tween-80) it was 107 % of control and 113 % of control; in assay [2] (setting [8]), 100 % of control; in assay [2] (dose: 200.0 mg/kg/injection, schedule: Q01DX009 (ip), vehicle: saline with Tween-80), 100 % of control; in assay [2] (setting [9]) it was 113 % of control.

Take `OCCOCCN1CCN(CCCN2c3ccccc3Sc3ccc(C(F)(F)F)cc32)CC1`: the T/C in assay [2] (dose: 1.56 mg/kg/injection, schedule: Q01DX009 (ip), vehicle: saline) was 109 % of control; in assay [2] (dose: 12.5 mg/kg/injection, schedule: Q04DX003 (ip), vehicle: saline), 113 % of control and 120 % of control; in assay [2] (dose: 50.0 mg/kg/injection, schedule: Q04DX003 (ip), vehicle: saline), 117 % of control.
